Results on four compounds are retold here after EP0323147A2, “1-Aralkyl-1,2-dihydropyrimidine-2-thiones” (SMITHKLINE BECKMAN CORPORATION, priority 1987, dated 1989).

Molecules are shown by their SMILES. Marks after values point to notes of the source that are not given here. Bounds are passed on as bounds.

One series addresses T1, DBH (Homo sapiens, UniProt P09172).
T1 sequence (P09172 1-617): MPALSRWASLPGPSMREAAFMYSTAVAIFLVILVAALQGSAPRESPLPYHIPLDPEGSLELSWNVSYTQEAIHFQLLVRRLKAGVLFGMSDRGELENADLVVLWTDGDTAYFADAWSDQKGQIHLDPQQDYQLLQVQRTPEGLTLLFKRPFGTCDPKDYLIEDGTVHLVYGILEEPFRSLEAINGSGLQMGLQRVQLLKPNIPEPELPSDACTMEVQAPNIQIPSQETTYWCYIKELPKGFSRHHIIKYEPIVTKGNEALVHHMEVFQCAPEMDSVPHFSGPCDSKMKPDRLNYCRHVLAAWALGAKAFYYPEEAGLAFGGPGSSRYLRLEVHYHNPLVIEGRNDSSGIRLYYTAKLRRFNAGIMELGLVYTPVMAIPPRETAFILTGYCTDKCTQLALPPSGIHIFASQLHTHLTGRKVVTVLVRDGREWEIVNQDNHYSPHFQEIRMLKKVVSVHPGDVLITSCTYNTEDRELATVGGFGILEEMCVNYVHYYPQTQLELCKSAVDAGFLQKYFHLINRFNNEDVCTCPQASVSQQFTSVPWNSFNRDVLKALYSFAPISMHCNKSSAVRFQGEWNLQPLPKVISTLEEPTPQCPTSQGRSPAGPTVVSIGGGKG
As to the kind of experiment: in vitro DBH inhibition, conversion of tyramine to octopamine in the presence of DBH. The format is biochemical. To be noted: for percent inhibition: at 10⁻⁵ M compound concentration, IC₅₀ not determined. The method, then: Because the compounds of structure (I) inhibit DBH activity they have therapeutic value as diuretic, natriuretic, cardiotonic, antihypertensive, and vasodilatoragents, as well as antiulcerogenic and anti-Parkinson agents. Listed in Table I are the compounds of the invention that were tested for in vitro DBH inhibition by a standard procedure for assaying conversion of tyramine to octopamine in the presence of DBH. J.J. Pisano, et al., Biochim. Biophys. Acta, 43, 566-568 (1960). Octopamine was assayed following sodium periodate oxidation to p-hydroxy-benzaldehyde by measuring spectrophotometric absorbance at 330 nm. In Table I, inhibition is given in micromolar concentration of compound at which DBH activity was halved (IC₅₀). […]

In series [1] the test system is spontaneously hypertensive rats. As to the kind of experiment: mean arterial blood pressure in spontaneously hypertensive rats after oral dosing. It counts as in vivo. To be noted: 50 mg/kg orally, compared to vehicle-treated controls. How it is done:
Further, spontaneously hypertensive rats were treated with a suspension or solution of 1-(3,5-fluorobenzyl)-1,2,-dihydropyrimidine-2-thione hydrochloride at a dose of 50 mg/kg orally and mean arterial blood pressure was monitored for 260 minutes using indwelling cannulae in the tail arteries. […] Maximal blood pressure reduction was approximately 25 to 30 mm Hg.

For series [2] the following is noted: literature, Teresawa et al., Japan Cir. J. 35, 339 (1971); cited from earlier work.

Consider `Cl.Fc1cc(F)cc(Cn2cccnc2=S)c1` [1-(3,5-Difluorobenzyl)-1,2-dihydropyrimidine 2-thione Hydrochloride], for which, on DBH (concentration of compound at which DBH activity was halved, read-out: DBH IC₅₀), the IC50 was determined as 2.8 µM. Besides, the “time after treatment to significant blood pressure reductions” value in series [1] was at most 30 min.
In the case of `Cl.Fc1cccc(Cn2cccnc2=S)c1` [1-(3-Fluorobenzyl)-1,2-dihydropyrimidine 2-thione Hydrochloride], on DBH, the percent inhibition came to 15%^a.
As for `S=c1ncccn1Cc1ccccc1` [1-benzyl-1,2-dihydropyrimidine-2-thione, 1-Benzyl-1,2-dihydropyrimidine-2 thione], the percent inhibition at DBH turned out to be 5%^a.
Consider `CCCCc1ccc(C(=O)O)nc1` [fusaric acid], for which, in series [2], the toxic effects result is “hepatotoxic”.
